“And” between values parts separate entries of the source, which are not always exact repeats. Equal values may be shown once.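 Method: 48-hour compound exposure of cells in 96-well plates, five concentrations, linear interpolation of endpoints. At the GI50, growth is halved. TGI: concentration producing complete growth inhibition.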
Experiments:
Assay in all cases: NCI tumour cell line growth inhibition, 48 h
EKVX NSCLC = system: EKVX NSCLC
HCC-2998 colon = system: HCC-2998 colon
HOP-62 NSCLC = system: HOP-62 NSCLC
K-562 leukemia = system: K-562 leukemia
MALME-3M melanoma = system: MALME-3M melanoma
MDA-MB-435 = system: MDA-MB-435
OVCAR-8 ovarian = system: OVCAR-8 ovarian
PC-3 prostate = system: PC-3 prostate
SF-539 CNS = system: SF-539 CNS
SW-620 colon = system: SW-620 colon

Row | SMILES | TGI (EKVX NSCLC) | TGI (HCC-2998 colon) | TGI (HOP-62 NSCLC) | TGI (K-562 leukemia) | TGI (MALME-3M melanoma) | TGI (MDA-MB-435) | TGI (OVCAR-8 ovarian) | TGI (PC-3 prostate) | TGI (SF-539 CNS) | TGI (SW-620 colon) | GI50 (EKVX NSCLC) | GI50 (HCC-2998 colon) | GI50 (HOP-62 NSCLC) | GI50 (K-562 leukemia) | GI50 (MALME-3M melanoma) | GI50 (MDA-MB-435) | GI50 (OVCAR-8 ovarian) | GI50 (PC-3 prostate) | GI50 (SF-539 CNS) | GI50 (SW-620 colon)
1 | CC(=O)Nc1cc(Nc2cc(=O)[nH]c(=O)[nH]2)ccc1C | > 100 µM | > 100 µM | > 100 µM | > 100 µM | > 100 µM | > 100 µM | > 100 µM | > 100 µM | > 100 µM | > 100 µM | – | – | – | – | – | – | – | – | – | –
2 | O=C1CC(n2cccc2)c2c(Br)sc(Br)c21 (configuration not stated) | 33.3 µM | 28.7 µM | 53.4 µM | 64.8 µM | 38 µM | 29.3 µM | 37.8 µM | 33.9 µM | 35 µM | 41.3 µM | – | – | – | – | – | – | – | – | – | –
3 | C=CC1CN2CCC1CC2C(O)c1ccnc2ccccc12 (configuration not stated) | > 100 µM | > 100 µM | > 100 µM | > 100 µM | > 100 µM | > 100 µM | > 100 µM | > 100 µM | > 100 µM | > 100 µM | > 100 µM | > 100 µM | > 100 µM | > 100 µM | 0.0846 µM | – | – | – | – | –
4 | S=C(NCc1ccccc1)N/N=C/c1ccccn1 | > 100 µM | > 68.5 µM | 71.5 µM | > 100 µM | > 100 µM | > 100 µM | > 76.2 µM | > 100 µM | > 100 µM | > 61.4 µM | – | – | – | – | – | – | – | – | – | –
5 | O=[N+]([O-])c1cccnc1-n1cnc2ccccc21 | > 100 µM | > 100 µM | > 100 µM | > 100 µM | > 100 µM | > 100 µM | > 100 µM | > 100 µM | > 100 µM | > 100 µM | – | – | – | – | – | – | – | – | – | –
6 | O=C(NNCc1ccc(Cl)cc1)Nc1cccc2ccccc12 | > 100 µM | > 100 µM | > 100 µM | > 100 µM | > 100 µM | > 100 µM | > 100 µM | > 100 µM | > 100 µM | > 100 µM | – | – | – | – | – | – | – | – | – | –
7 | O=[N+]([O-])c1ccc(C(Nc2ccccc2)c2ccc3cccnc3c2O)cc1 (configuration not stated) | > 54.6 µM | 97.7 µM | > 100 µM | > 57.4 µM | > 65.2 µM | > 78 µM | 52.3 µM | > 87.2 µM | 21.1 µM | > 100 µM | – | – | – | – | – | – | – | – | – | –
8 | CCN(CC)c1ccc2cc(-c3nc4ccccc4c(=O)[nH]3)c(=N)oc2c1 | > 100 µM | > 100 µM | > 100 µM | > 100 µM | > 100 µM | > 100 µM | > 100 µM | > 100 µM | > 100 µM | > 100 µM | – | – | – | – | – | – | – | – | – | –
9 | NCCOCC(N)C(=O)O (configuration not stated) | > 100 µM | > 100 µM | > 100 µM | > 100 µM | > 100 µM | > 100 µM | > 100 µM | > 100 µM | > 100 µM | > 100 µM | – | – | – | – | – | – | – | – | – | –
10 | Cc1ccccc1OC(C)C(=O)NN1C(=O)CC(=O)N(c2ccccc2)C1=S (configuration not stated) | > 100 µM | > 100 µM | > 100 µM | > 100 µM | > 100 µM | > 100 µM | > 100 µM | > 100 µM | > 100 µM | > 100 µM | – | – | – | – | – | – | – | – | – | –
11 | CCOC(=O)c1cnccc1CC1(C#N)c2ccccc2C=CN1C(=O)c1ccccc1 (configuration not stated) | > 100 µM | > 100 µM | > 100 µM | 49.6 µM | 26.5 µM | > 100 µM | 37.2 µM | > 100 µM | 75.6 µM | > 100 µM | – | – | – | – | – | – | – | – | – | –
12 | NC(=O)Cc1nc2c(=O)[nH]cnc2n1C1OC(CO)C(O)C1O (configuration not stated) | > 100 µM | > 100 µM | > 100 µM | > 100 µM | > 100 µM | > 100 µM | > 100 µM | > 100 µM | > 100 µM | > 100 µM | – | – | – | – | – | – | – | – | – | –
13 | NC1=NCC(CN2CCCC2)O1 (configuration not stated) | > 100 µM | > 100 µM | > 100 µM | > 100 µM | > 100 µM | > 100 µM | > 100 µM | > 100 µM | > 100 µM | > 100 µM | – | – | – | – | – | – | – | – | – | –
14 | CC(C)C1(O)C(=O)N(c2c(F)c(F)c(F)c(F)c2F)C(=S)N1CCSc1ccccc1 (configuration not stated) | 33.5 µM | 34.8 µM | 34.6 µM | 26.7 µM | 31.6 µM | 32.8 µM | 33.8 µM | 29.2 µM | 35.1 µM | 30.3 µM | – | – | – | – | – | – | – | – | – | –
15 | CCC(CC(C)C)Nc1ccc(NC(CC)CC(C)C)cc1 (configuration not stated) | 37.6 µM | 36 µM | 33.3 µM | 37.8 µM | 34.3 µM | 40 µM | 34.2 µM | 16.3 µM | 33 µM | 30.1 µM | 16.7 µM | 19.3 µM | 18.6 µM | 10.7 µM | 14.7 µM | 18.2 µM | 18.2 µM | 4 µM | 17.1 µM | 15.6 µM
16 | Cc1nc2ccc(Cl)cc2c2c1CCN2c1ccccc1 | 68.2 µM | 24.8 µM | 83.8 µM | 21.8 µM | 32.3 µM | 21.3 µM | 29.1 µM | 29.5 µM | 28.8 µM | 63.9 µM | – | – | – | – | – | – | – | – | – | –
17 | COc1ccc2nc3n(c2c1)CCc1cc(OC)c(OC)cc1-3 | > 100 µM | 52.9 µM | > 100 µM | > 100 µM | > 100 µM | > 100 µM | > 100 µM | > 100 µM | > 100 µM | > 100 µM | – | – | – | – | – | – | – | – | – | –
18 | CC(C)(C)C1CC[C@H](O)[C@H]([C@H](O)CC2CC(=O)N(c3ccccc3)C(=O)C2)C1 (some centres not stated) | > 100 µM | > 100 µM | > 100 µM | > 100 µM | > 100 µM | > 100 µM | > 100 µM | > 100 µM | > 100 µM | > 100 µM | – | – | – | – | – | – | – | – | – | –
19 | CCOC(=O)C1CCCCN1CCc1c[nH]c2ccccc12 (configuration not stated) | > 100 µM | > 100 µM | > 100 µM | > 100 µM | > 100 µM | > 100 µM | > 100 µM | > 100 µM | > 100 µM | > 100 µM | – | – | – | – | – | – | – | – | – | –
20 | Cc1ccc(S(=O)(=O)n2cc(C#N)c(C#N)c2)cc1 | > 100 µM | 48.2 µM | 68.8 µM | > 100 µM | 33.9 µM | 45.6 µM | > 100 µM | 85 µM | 39.9 µM | 80 µM | – | – | – | – | – | – | – | – | – | –
21 | CO[C@H]1C[C@H](O[C@H]2CC[C@]3(C=O)[C@H]4CC[C@]5(C)[C@@H](C6=CC(=O)OC6)CC[C@]5(O)[C@@H]4CC[C@]3(O)C2)O[C@H](C)[C@H]1O | 0.79 µM | 8.36 µM | 0.135 µM | 1.35 µM | 2.86 µM | 1.47 µM | 1.03 µM | 1.04 µM | 0.218 µM | 2.71 µM | – | – | – | – | – | – | – | – | – | –
22 | CC1CC/C(=C\c2ccc(Cl)cc2)c2nc(N)c(C#N)c(-c3ccc(Cl)cc3)c21 (configuration not stated) | > 100 µM | > 100 µM | > 100 µM | > 100 µM | 62 µM | > 100 µM | > 100 µM | > 100 µM | > 100 µM | > 100 µM | – | – | – | – | – | – | – | – | – | –
23 | C/C(Nc1ccc(Cl)cc1Cl)=C1/CCOC1=O | 73.9 µM | > 100 µM | 70.8 µM | > 100 µM | > 100 µM | > 100 µM | > 100 µM | > 100 µM | 89.9 µM | > 100 µM | – | – | – | – | – | – | – | – | – | –
24 | O=C(/C=C/c1cccs1)c1ccccc1Cl | 30.8 µM | 32.2 µM | 32.1 µM | > 100 µM | 26.7 µM | 25.5 µM | > 100 µM | 34.5 µM | > 69.1 µM | 40.9 µM | – | – | – | – | – | – | – | – | – | –
25 | N#Cc1nc(C#N)n(C(=O)c2ccccc2)c1NC(=O)c1ccccc1 | > 100 µM | > 100 µM | > 100 µM | > 100 µM | > 100 µM | > 100 µM | > 100 µM | > 100 µM | > 100 µM | > 100 µM | – | – | – | – | – | – | – | – | – | –
26 | CCOP(=O)(OCC)C(C)(CC)NC(=O)C(C(F)(F)F)C(F)(F)F (configuration not stated) | > 100 µM | > 100 µM | > 100 µM | > 100 µM | > 100 µM | > 100 µM | > 100 µM | > 100 µM | > 100 µM | > 100 µM | – | – | – | 18.6 µM and 39.1 µM | – | – | – | – | 48.1 µM and > 100 µM | –
27 | NCCC1CN(C(=O)OCc2ccccc2)c2ccccc21 (configuration not stated) | 84.4 µM | 33.9 µM | > 54.4 µM | 26.9 µM | 29.1 µM | 30 µM | 20.3 µM | > 36.2 µM | 14.4 µM | 25.4 µM | – | – | – | – | – | – | – | – | – | –

Source: PubChem BioAssay (NCI)
